The source of these data is PubChem BioAssay AID1918933 (Molecular Pharmacology Branch, DTP, NCI, 2023).

Where “and” joins values, the source holds several entries; their conditions need not be identical. Equal entries are not always repeated. Bounds are passed on as bounds.

The subject of this assay is 186277-243-T-J2-PDC complex spheroid viability. The assay can be described thus: Anticancer human tumor 186277-243-T-J2-PDC patient-derived colon adenocarcinoma cell line growth inhibition. To be noted: for viability, T/C: stronger effect = lower value; for IC50: curve of compound. The source says: Multicellular complex tumor spheroid response to LSD1 Inhibitor Iadademstat in combination with a variety of drugs and investigational agents in selected tumor cell lines
The current study was undertaken to assess response to LSD1 inhibitors in combination with standard-of-care drugs and investigational agents in solid tumor complex spheroid models as well as in the K-562 leukemia. Complex spheroids include a stromal component modeled by human endothelial cells (HUVEC) and fibroblasts modeled by human mesenchymal stem cells (MSCs). The concentration ranges selected for each drug and investigational agent were based upon clinically achievable concentrations if the clinical Cmax of the agent was known.
Compounds. The drugs and investigational agents used in this study are listed on Table 1. All of the agents used, including staurosporine (NSC755774) and gemcitabine (NSC613327), were obtained from the Developmental Therapeutics Program, NCI. FDA-approved anticancer drugs are available from the NCI at http://dtp.nci.nih.gov/branches/dscb/oncology_drugset_explanation.html. Drugs and investigational agents were >95% pure by proton nuclear magnetic resonance (NMR) and liquid chromatography/mass spectrometry (LC/MS). Stock solutions were prepared at 400x in DMSO, stored at -70 degrees C, and diluted in fresh medium prior to their use. The final concentration of DMSO in cell culture wells never exceeded 0.25% (v/v). The FDA-approved anticancer drug set is available from the Developmental Therapeutics Program at https://dtp.cancer.gov/organization/dscb/obtaining/available_plates.htm. All drugs and investigational agents were tested over a range starting from a high concentration at or near the clinical Cmax and decreasing in half-log increments. If the clinical Cmax for an agent had not been determined, the highest concentration tested was 10 microM.
Cell Lines. The patient-derived cancer cell (PDC) lines: 292921-168-R-J2-PDC, K24384-001-R-PDC, and 521955-158-R2-J5-PDC pancreatic carcinomas, 556581-035-R-J1 ovarian carcinoma, 324938-238-R-J1-PDC, 855422-203-R-J1-PDC and 883617-216-R-J1-PDC urothelial bladder carcinomas, 743489-274-T-PDC renal cell carcinoma, 138582-R-J1 Merkel cell tumor, K60290-347-R-J1 and K57222-313-R-J1-PDC glioblastomas, 653999-131-R-J2-PDC, LG0703-F948-PDC, and 349418-098-R-PDC non-small cell lung carcinomas, 885512-296-R-J2-PDC, 171881-019-R-J1-PDC breast carcinomas and 186277-243-T-J2-PDC and 233499-124-R-J2-PDC colon carcinomas were obtained from the NCI Patient-Derived Models Repository (PDMR, https://pdmr.cancer.gov). The established cell lines NCI/ADR-RES (RRID:CVCL_14520 and OVCAR-5 (RRID:CVCL_1628) ovarian carcinomas, 786-O (RRID:CVCL_1051) and A498 (RRID:CVCL_A498) renal cell carcinoma, NCI-H211 (ATCC, cat. CRL-5824; RRID:CVCL_1529), NCI-H196 (ATCC, cat. CRL-5823, RRID:CVCL_1509), SW 1271 (ATCC, cat. CRL-2177, RRID:CVCL_1716) and NCI-H1876 (ATCC, cat. CRL-5902, RRID:CVCL_1503) small cell lung carcinomas, MDA-MB-231 (RRID:CVCL_0062) and MDA-MB-468 (RRID:CVCL_0419)breast carcinomas (10-12). Pooled donor human umbilical vein endothelial cells (HUVEC, Lonza, cat. CC-2519) and human mesenchymal stem cells (hMSC, Lonza, cat. PT-2501) were purchased from Lonza (Walkersville, MD).
Cell Culture. All cells were maintained in an incubator at 37 degrees C and 5% CO2 with 95% humidity. The PDC lines were cultured according to standard operating procedures established by the NCI PDMR (https://pdmr.cancer.gov). Briefly all PDCs were thawed and cultured in Matrigel-coated flasks prepared with a working solution of 1X Ham's F-12 nutrient mix, without supplementation (Invitrogen, Waltham, MA, cat. 11765054), 100 U/mL penicillin-streptomycin (Invitrogen, cat. 15140122), and 2.5% Matrigel (Corning Inc., Corning, NY, cat. 354248) for the first three passages. […]
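Also: 7 day exposure to compounds.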
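For viability, T/C in this document: 100% = DMSO vehicle control viability.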

`CC(C)CC(NC(=O)C(Cc1ccccc1)NC(=O)c1cnccn1)B(O)O` (stereo not given): the half-inhibitory concentration (IC50) was 0.00274 µM and 0.000548 µM. For the setting “compound 0.000316 µM”, the viability, T/C is 96.1% and 94%. Moreover, the viability, T/C (compound 0.01 µM) is 3.46% and 0.11%. Moreover, the viability, T/C (compound 0.0316 µM) was 2.69% and 0.11%. For the same compound, the viability, T/C (compound 0.1 µM) is 3.82% and 0.17%.
With `CC(C)CC(NC(=O)CNC(=O)c1cc(Cl)ccc1Cl)B1OC(=O)CC(CC(=O)O)(C(=O)O)O1` (stereo not given), the IC50 is 0.0153 µM and 0.0102 µM. Besides, the viability, T/C (compound 0.000316 µM) was 99.8% and 95.4%. Also, the viability, T/C (compound 0.001 µM) is 99.4% and 103%. In addition, the viability, T/C (compound 0.00316 µM) is 101% and 94.2%. Further, the viability, T/C (compound 0.01 µM) was 70.7% and 51.2%. In addition, the viability, T/C (compound 0.0316 µM) was 14.8% and 2.68%. Also, the viability, T/C (compound 0.1 µM) was 6.24% and 0.35%.
`CC1(C)CCC(CN2CCN(c3ccc(C(=O)NS(=O)(=O)c4ccc(NCC5CCOCC5)c([N+](=O)[O-])c4)c(Oc4cnc5[nH]ccc5c4)c3)CC2)=C(c2ccc(Cl)cc2)C1`: the IC50 was 3.36 µM and 2.21 µM. In addition, the viability, T/C (compound 0.0316 µM) was 100% and 109%. Further, the viability, T/C (compound 0.1 µM) is 108% and 90.4%. Also, the viability, T/C (compound 0.316 µM) was 93% and 94.6%. Also, the viability, T/C (compound 1 µM) was 95.7% and 97.7%. Also, the viability, T/C (compound 3.16 µM) was 52.1% and 28.3%. The viability, T/C (compound 10 µM) is 8.65% and 0.19%.
For `CC1COCCN1c1cc(-c2ccnn2C)c2ccnc(-c3ccn[nH]3)c2n1` (stereo not given), the half-maximal inhibitory concentration (IC50) is 0.00615 µM and < 0.00316 µM. Further, the viability, T/C (compound 0.00316 µM) is 77.4% and 18.2%. Besides, the viability, T/C (compound 0.01 µM) is 30.1% and 14%. Also, the viability, T/C (compound 0.0316 µM) is 11.1% and 8.92%. Besides, for the setting “compound 0.1 µM”, the viability, T/C is 9.14% and 7.83%. Also, under “compound 0.316 µM”, the viability, T/C was 10.1% and 8.98%. Also, the viability, T/C (compound 1 µM) is 11.4% and 7.8%.
As for `CC1COCCN1c1cc(C2(S(C)(=N)=O)CC2)nc(-c2ccnc3[nH]ccc23)n1` (stereo not given), the IC50 was 0.278 µM and 0.952 µM. The viability, T/C (compound 0.0316 µM) was 103% and 87.2%. Moreover, where the note is “compound 0.1 µM”, the viability, T/C was 93.4% and 94.7%. Under “compound 0.316 µM”, the viability, T/C was 44.4% and 91.3%. For the same compound, the viability, T/C (compound 1 µM) was 14.2% and 48%. Moreover, under “compound 3.16 µM”, the viability, T/C is 8.73% and 10%. In addition, for the setting “compound 10 µM”, the viability, T/C is 9.16% and 5.79%.
Take `CCN(c1cc(-c2ccc(CN3CCOCC3)cc2)cc(C(=O)NCc2c(C)cc(C)[nH]c2=O)c1C)C1CCOCC1`: the half-inhibitory concentration (IC50) is > 3 µM and 2.2 µM. Moreover, the viability, T/C (compound 0.00949 µM) was 106% and 93.9%. Further, where the note is “compound 0.03 µM”, the viability, T/C was 99.2% and 112%. For the same compound, the viability, T/C (compound 0.0949 µM) is 108% and 96.8%. Also, for the setting “compound 0.3 µM”, the viability, T/C was 99.2% and 104%. Further, the viability, T/C (compound 0.949 µM) is 99.2% and 108%. Besides, the viability, T/C (compound 3 µM) is 101% and 30.2%.
`CC[C@@]1(O)C(=O)OCc2c1cc1n(c2=O)Cc2cc3c(CN(C)C)c(O)ccc3nc2-1`: the half-inhibitory concentration (IC50) is 0.0759 µM and 0.0613 µM. For the same compound, the viability, T/C (compound 0.000316 µM) was 113% and 102%. The viability, T/C (compound 0.001 µM) is 101% and 98%. The viability, T/C (compound 0.00316 µM) is 95.7% and 113%. The viability, T/C (compound 0.01 µM) was 93.4% and 118%. Besides, the viability, T/C (compound 0.0316 µM) is 74.8% and 75.9%. For the same compound, for the setting “compound 0.1 µM”, the viability, T/C is 41.5% and 30.9%.
In the case of `CCc1c2c(nc3ccc(O)cc13)-c1cc3c(c(=O)n1C2)COC(=O)[C@]3(O)CC`, the IC50 was less than 0.000949 µM. Moreover, for the setting “compound 0.000949 µM”, the viability, T/C was 48.5% and 39.8%. The viability, T/C (compound 0.003 µM) is 35.5% and 27%. Moreover, under “compound 0.00949 µM”, the viability, T/C was 31.5% and 23.3%. The viability, T/C (compound 0.03 µM) is 22% and 4.12%. Further, the viability, T/C (compound 0.0949 µM) is 2.19% and 0.43%. Further, for the setting “compound 0.3 µM”, the viability, T/C was 0.75% and 0.28%.
For `COc1cc(C2c3cc4c(cc3C(OC3OC5COC(C)OC5C(O)C3O)C3COC(=O)C23)OCO4)cc(OC)c1O` (stereo not given), the concentration for half-maximal inhibition (IC50) is 1.7 µM and 0.618 µM. Besides, the viability, T/C (compound 0.00949 µM) is 101% and 112%. The viability, T/C (compound 0.03 µM) is 100% and 124%. Moreover, the viability, T/C (compound 0.0949 µM) was 92.8% and 98.9%. Moreover, the viability, T/C (compound 0.3 µM) was 75.2% and 70.9%. Also, the viability, T/C (compound 0.949 µM) is 61.2% and 39%. For the same compound, the viability, T/C (compound 3 µM) is 40.3% and 17.3%.
As for `COc1cc(Nc2ncc3c(n2)-c2ccc(Cl)cc2C(c2c(F)cccc2OC)=NC3)ccc1C(=O)O`, the viability, T/C runs as follows: (compound 0.00316 µM) 101% and 116%; (compound 0.01 µM) 57.4% and 106%; (compound 0.0316 µM) 30.4% and 99.2%; (compound 0.1 µM) 8.56% and 98.8%.
